Assays:
Type in all cases: in vivo
APP23 mice = test: Long-term potentiation (LTP) in hippocampal slices, electrophysiological technique; conditions: hippocampal slices of APP23 mice chronically treated
Experimental: FIG. 4e to FIG. 4g show the results of long-term potentiation phenomenon (LTP)(serving as an index of memory formation) analyzed by an electrophysiological technique. The hippocampus in the brain plays an important role in memorization. The hippocampus was cut into slice sections (400 micrometers in thickness). The slice sections were placed in an artificial cerebrospinal fluid (126 mM NaCl, 5 mM KCL, 26 mM NaHCO3, 1.3 mM MgSO4-7H2O, 1.26 mM KH2PO4, 2.4 mM CaCl2-2H2O, 10 mM glucose) saturated with a 95% O2/5% CO2 gas at 34° C. for two hours and recovered. The hippocampal slice sections were transferred to a measuring chamber and the artificial cerebrospinal fluid containing TP-014 was perfused. The activity of the nerve cells when electrical stimulation was applied was recorded and the postsynaptic assembly potential (fEPSP) was measured. Based on them, the degree of LTP improvement was evaluated. Thereafter, an electrical stimulation (100 Hz) was applied to the hippocampus to cause a […] (it is considered that memory is formed by a […] in the hippocampus). It was confirmed that an increase rate of the neuronal excitation decreases in APP23 mice; whereas the increase rate is improved in the mice chronically treated with TP-014.

ob/ob = test: Hypoglycemic effect, blood glucose level by assay kit; conditions: 1 mg/kg chronic treatment for 4 weeks; effect on and after 3 weeks; vs ob/ob (saline)
Experimental: A hypoglycemic effect by TP-014 was checked by measuring the blood glucose level by an assay kit (manufactured by Technicon International co). The measurement was carried out for 4 weeks. […] As a control, tolbutamide was used. Kir6.2 channel binds to SUR1 ([…]) on the cell membrane to form a channel. Action mechanism is considered due to Kir6.2 channel inhibitory action. Tolbutamide binds to SUR1 to inhibit Kir6.2 channel.

[1] = test system: Kir6.1 defective mice administered with corticosterone; test: Anxiety-related behavioral tests in Kir6.1 defective mice administered with corticosterone; conditions: Kir6.1 defective mice + corticosterone; TP-014 1 mg/kg oral once a day for 2 weeks
Experimental: Using WT mice (C57BL/6J, Japan SLC, two months old) administered with corticosterone (dose of 5 mg/kg was administered once a day for 2 weeks); and Kir6.1 defective mice administered with corticosterone, as disease model mice showing anxiety-like symptoms, five behavioral tests regarding anxiety-related behavior were conducted. Note that, the Kir6.1 defective mice were obtained from Professor Susumu Seino, School of Medicine of Kobe University (Miki T et al., Nature Medicine 2002, 8, 466-472).
To the WT mice and Kir6.1 defective mice administered with corticosterone, TP-014 (1 mg/kg) was administered via the oral route once a day for 2 weeks (chronic treatment). As a result, it was confirmed that a significant anxiety symptom acceleration improving effect was obtained. […]
The time until a mouse placed in a black box (dark place) feels anxiety to light and comes out of the box to a bright place) was measured. […]
In the cage for housing a mouse is filled with wood chip bedding and 20 marbles are placed such that a mouse can see them. […] The number of marbles buried and hidden in the wood chip bedding is counted. […]
Using the same test apparatus as in the light/dark test method, a mouse is placed in a dark place, and then, sound (treble) is produced for 30 seconds and thereafter electrical stimulation is given for 3 seconds. […] The immobility time of the mouse is measured. […]

## O=C(N[C@@H](c1ccccc1)[C@H]1[C@H]2C[C@@H]3C[C@](Cl)(C2)C[C@@]1(OC(=O)C(F)(F)F)C3)C(F)(F)F [TP-014, (1S,2R,3S,5S,7S)-5-chloro-2-((R)-phenyl(2,2,2-trifluoroacetamido)methyl)adamantan-1-yl 2,2,2-trifluoroacetate]
APP23 mice
  LTP, increase rate of neuronal excitation (fEPSP) after 100 Hz stimulation: improved
ob/ob
  blood glucose level: significantly decreased
[1]
  anxiety-like symptoms: no improvement effect
